TGI data for eleven compounds are collected here from PubChem BioAssay (NCI).

Molecules are shown by their SMILES.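 Exposure lasted 48 hours, with cells grown in 96-well plates and compounds tested at five concentrations. At the TGI there is no net growth.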

Test systems include ACHN renal; BT-549 breast; KM12 colon; M14 melanoma; MDA-N; MOLT-4 leukemia; PC-3 prostate; SF-268 CNS; SF-295 CNS; SK-MEL-2 melanoma; SK-OV-3 ovarian; SR leukemia.
Test in all cases: growth of human tumour cells (NCI), 48 h

With `S=C(Nc1ccccn1)Nc1ccccc1Cl`, the TGI in the experiment on ACHN renal was more than 100 µM; in the experiment with BT-549 breast, more than 100 µM; in the experiment on KM12 colon it was more than 83.4 µM; with M14 melanoma, more than 100 µM; in the experiment with MDA-N, more than 100 µM; with MOLT-4 leukemia it was more than 100 µM. Also, the TGI in the experiment with PC-3 prostate was more than 100 µM; in the experiment with SF-268 CNS, more than 78 µM; with SF-295 CNS, more than 100 µM; with SK-MEL-2 melanoma it was more than 100 µM; in the experiment on SK-OV-3 ovarian, more than 100 µM; in the experiment with SR leukemia, more than 100 µM.
On to `CCN(CC)C(=O)N1CN(c2ccccc2)C2(CCN(CCCSc3ccc(F)cc3)CC2)C1=O`, for which the TGI with ACHN renal was 15.8 µM; in the experiment on BT-549 breast, 31.4 µM; with KM12 colon, 25.3 µM; in the experiment with M14 melanoma, 15.3 µM; in the experiment with MDA-N it was 21.3 µM; in the experiment with MOLT-4 leukemia it was 12.5 µM. For the same compound, the TGI in the experiment on PC-3 prostate was 36.5 µM; in the experiment with SF-268 CNS, 36.1 µM; with SF-295 CNS, 25.1 µM; in the experiment with SK-MEL-2 melanoma it was 21 µM; in the experiment on SK-OV-3 ovarian it was 63 µM; in the experiment with SR leukemia, 18 µM.
For `CC(=O)Oc1ccc(/C=C/C(=O)O[C@H]2CCCC[C@@H]2OC(=O)/C=C/c2ccc(OC(C)=O)c(OC(C)=O)c2)cc1OC(C)=O`, the TGI worked out at 33.4 µM in the experiment on ACHN renal; 36.9 µM in the experiment with BT-549 breast; 60.2 µM with KM12 colon; 25.6 µM with M14 melanoma; 27.5 µM in the experiment with MDA-N; 34.8 µM in the experiment on MOLT-4 leukemia. The TGI in the experiment with PC-3 prostate is more than 100 µM; in the experiment on SF-268 CNS it was 32.6 µM; with SF-295 CNS it was 19 µM; with SK-MEL-2 melanoma, 53.1 µM; in the experiment on SK-OV-3 ovarian, 27.4 µM; with SR leukemia, more than 100 µM.
On to `CC1CCc2sc3[nH]c(=S)n(-c4ccccc4)c(=O)c3c2C1` (configuration not stated), for which the TGI in the experiment on ACHN renal, in the experiment on BT-549 breast, in the experiment with KM12 colon, in the experiment on M14 melanoma, in the experiment with MDA-N and with MOLT-4 leukemia was more than 100 µM throughout. Further, the TGI in the experiment with PC-3 prostate was more than 100 µM; with SF-268 CNS, more than 100 µM; in the experiment on SF-295 CNS it was more than 100 µM; with SK-MEL-2 melanoma it was 93.7 µM; in the experiment on SK-OV-3 ovarian, more than 100 µM; in the experiment on SR leukemia, more than 100 µM.
Regarding `COc1ccc(-c2cc(-c3cc(F)c(Cl)cc3Cl)on2)cc1OC`, the TGI is more than 100 µM with ACHN renal; more than 100 µM in the experiment on BT-549 breast; more than 100 µM with KM12 colon; more than 100 µM in the experiment with M14 melanoma; 41 µM in the experiment with MDA-N; 49.5 µM in the experiment with MOLT-4 leukemia. For the same compound, the TGI with PC-3 prostate was more than 100 µM; in the experiment with SF-268 CNS, more than 100 µM; in the experiment on SF-295 CNS it was more than 100 µM; with SK-MEL-2 melanoma it was 97.7 µM; in the experiment with SK-OV-3 ovarian, more than 100 µM; in the experiment with SR leukemia, 13.1 µM.
`COc1ccc2cc(C(=O)NCCCNC(=O)c3ccc4cc(OC)ccc4c3)ccc2c1`: the TGI with ACHN renal, with BT-549 breast, in the experiment on KM12 colon, with M14 melanoma, in the experiment with MDA-N and in the experiment on MOLT-4 leukemia was more than 100 µM throughout. The TGI is more than 100 µM with PC-3 prostate; more than 100 µM in the experiment with SF-268 CNS; more than 83.8 µM in the experiment with SF-295 CNS; more than 100 µM in the experiment on SK-MEL-2 melanoma; more than 65 µM in the experiment with SK-OV-3 ovarian; more than 100 µM in the experiment on SR leukemia.
Take `O=[N+]([O-])c1ccc2c(c1)c(S(=O)(=O)O)cc1nonc12`: the TGI with ACHN renal, in the experiment on BT-549 breast, in the experiment on KM12 colon, in the experiment on M14 melanoma, in the experiment with MDA-N and with MOLT-4 leukemia was more than 100 µM throughout. In addition, the TGI in the experiment with PC-3 prostate, with SF-268 CNS, in the experiment on SF-295 CNS, with SK-MEL-2 melanoma, in the experiment with SK-OV-3 ovarian and in the experiment on SR leukemia was more than 100 µM in each case.
As for `c1ccc(-c2cc(-c3cccs3)c(-c3cccs3)o2)cc1`, the TGI in the experiment with ACHN renal, in the experiment on BT-549 breast, in the experiment on KM12 colon, with M14 melanoma, in the experiment on MDA-N and in the experiment on MOLT-4 leukemia was more than 100 µM in each case. Also, the TGI in the experiment on PC-3 prostate, in the experiment with SF-268 CNS, in the experiment with SF-295 CNS, in the experiment with SK-MEL-2 melanoma, in the experiment on SK-OV-3 ovarian and in the experiment on SR leukemia was more than 100 µM in each case.
Turning to `c1ccc2c(c1)CC1COc3ccccc3C1O2` (configuration not stated), the TGI in the experiment on ACHN renal, with BT-549 breast, in the experiment with KM12 colon, in the experiment with M14 melanoma, with MDA-N and in the experiment with MOLT-4 leukemia was more than 100 µM in each case. Also, the TGI in the experiment with PC-3 prostate, in the experiment with SF-268 CNS, with SF-295 CNS, in the experiment with SK-MEL-2 melanoma, in the experiment on SK-OV-3 ovarian and with SR leukemia was more than 100 µM each time.
Consider `Cc1nc2ccccc2n1Cc1nnc(N)o1`, for which the TGI in the experiment on ACHN renal, with BT-549 breast, in the experiment with KM12 colon, with M14 melanoma, with MDA-N and in the experiment on MOLT-4 leukemia was more than 100 µM in each case. For the same compound, the TGI with PC-3 prostate, with SF-268 CNS, with SF-295 CNS, in the experiment on SK-MEL-2 melanoma, with SK-OV-3 ovarian and in the experiment with SR leukemia was more than 100 µM throughout.
`CCCCCCCCCCCCCCCCCCOCC(COP(=O)([O-])OCC[N+](C)(C)C)OC` (configuration not stated): the TGI was more than 100 µM in the experiment with ACHN renal; more than 100 µM with BT-549 breast; 10.4 µM in the experiment with KM12 colon; more than 63.5 µM in the experiment on M14 melanoma; more than 100 µM in the experiment on MDA-N; 29.3 µM with MOLT-4 leukemia. The TGI in the experiment on PC-3 prostate is 57.2 µM; in the experiment with SF-268 CNS it was 51.8 µM; in the experiment with SF-295 CNS it was 29.7 µM; in the experiment with SK-MEL-2 melanoma, 54.9 µM; in the experiment with SK-OV-3 ovarian, 46 µM; with SR leukemia it was more than 60.1 µM.
